Earlier results in patent US20250235488A1, “COMPOSITIONS AND METHODS FOR PROVIDING HEMATOPOIETIC FUNCTION” (Fred Hutchinson Cancer Center, priority 2010, published 2025).

Experiments:
[1] = not given; remark: listed apart in the source

## O=NN(CCCl)C(=O)NCCCl [Carmustine]
other
  solubility in alcohol: freely soluble
  solubility in lipids: highly soluble
  solubility in water: slightly soluble
[1]; in vivo
  CSF concentrations as percentage of concurrent plasma concentrations: 15-70%
[1]; in vivo, iv
  time after which no intact drug is detectable in plasma: 15 min

## Nc1ccn([C@@H]2O[C@H](CO)[C@@H](O)[C@@H]2O)c(=O)n1 [Cytarabine]
[1]; after rapid IV injection
  plasma half-life, initial phase: about 10 minutes
  plasma half-life, terminal phase: 1 to 3 h
[1]; rapid IV, IM, SQ, IT injection or continuous IV infusion
  dose excreted in the urine within 24 hours: 70-80%
